Experimental data reported in patent US20090099167A1, “Organic compounds” (Novartis Institutes for Biomedical Research, priority 2004, published 2009).
Read-outs that look alike come from different tables or passages of the source.

Experiments:
c-Abl kinase = molecular target: T1, c-Abl kinase (Homo sapiens, UniProt P00519); assay: c-Abl protein-tyrosine kinase filter binding assay; format: biochemical
T1 construct: The His-tagged kinase domain of c-Abl is cloned and expressed in the baculovirus/Sf9 system; His; made in house; host or cells: Sf9 (baculovirus)
T1 sequence (P00519 242-493 limits assumed): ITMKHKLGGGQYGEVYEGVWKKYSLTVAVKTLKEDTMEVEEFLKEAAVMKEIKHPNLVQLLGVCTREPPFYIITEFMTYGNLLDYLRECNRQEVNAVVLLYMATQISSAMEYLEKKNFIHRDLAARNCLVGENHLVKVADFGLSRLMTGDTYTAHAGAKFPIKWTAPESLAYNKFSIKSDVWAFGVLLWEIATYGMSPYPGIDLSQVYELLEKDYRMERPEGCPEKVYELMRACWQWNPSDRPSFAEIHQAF
Experimental: The His-tagged kinase domain of c-Abl is cloned and expressed in the baculovirus/Sf9 system as described by Bhat et al. in J. Biol. Chem. 1997; 272:16170-16175. A protein of 37 kD (c-Abl kinase) is purified by a two-step procedure over a Cobalt metal chelate column followed by an anion exchange column with a yield of 1-2 mg/L of Sf9 cells (Bhat et al., reference cited). The purity of the c-Abl kinase is >90% as judged by SDS-PAGE after Coomassie blue staining. The assay contains (total volume of 30 μL): c-Abl kinase (50 ng), 20 mM Tris.HCl, pH 7.5, 10 mM MgCl2, 10 μM Na3VO4, 1 mM DTT and 0.06 μCi/assay [γ^33 P]-ATP (5 μM ATP) using 30 μg/mL poly-Ala,Glu,Lys,Tyr-6:2:5:1 (Poly-AEKY, Sigma P1152) in the presence of 1% DMSO. Reactions are terminated by adding 10 μL of 250 mM EDTA and 30 μL of the reaction mixture is transferred onto Immobilon-PVDF membrane (Millipore, Bedford, Mass., USA) previously soaked for 5 min with methanol, rinsed with water, then soaked for 5 min with 0.5% H3PO4 and mounted on vacuum manifold with disconnected vacuum source. After spotting all samples, vacuum is connected and each well rinsed with 200 μL 0.5% H3PO4. Membranes are removed and washed on a shaker with 0.5% H3PO4 (4 times) and once with ethanol. Membranes are counted after drying at ambient temperature, mounting in Packard TopCount 96-well frame, and addition of 10 μL/well of Microscint™ (Packard).

Cdk1/cycB = Cdk1/cycB (UniProt P06493); assay: Cdk1/cycB kinase assay, histone H1 substrate; format: biochemical, starfish
Experimental: The inhibition of Cdk1 can be determined as follows: Cdk1/cycB: Cdk1/cycB are obtained from ProQinase, Freiburg, Germany. Starfish oocytes are induced to enter M phase of the cell cycle with 10 μM 1-methyladenine and frozen in liquid nitrogen and stored at −80° C. […] Briefly, the supernatant from oocytes is equilibrated for 30 min at 4° C. under constant rotation with the p9^CKShs-sepharose beads. The beads are extensively washed and active cdk1/cycB kinase is eluted with purified p9^CKShs (3 mg/ml). […] The assay is carried with slight modifications in 96-well plates at ambient temperature for 20 min. […] The reaction is terminated by addition of 25 μl 0.05 M EDTA pH 7.0. An aliquot of 40 μl is spotted with a multichannel dispenser on Immobilon P membranes mounted in a Millipore Microtiter filter manifold connected to a low vacuum source. After elimination of liquid, the membrane is transferred to a sequence of 4 washing baths containing 0.5% H3PO4 and one with EtOH (shaking incubation for 10 min each), dried, mounted onto a Hewlett Packard TopCount manifold added 10 μl Microscint® and counted. […] Cells were seeded at 2.5×10^7 cells per 150 mm dish and allowed to attach to a 150 mm dish for 1 hr at RT. Media (SF900II containing 10% FBS) is aspirated and recombinant baculovirus; GST-C-Raf-1, v-Ras and v-Src are added at MOI of 3.0, 2.5 and 2.5 receptively in a total volume of 4-5 mL. Cells are incubated for 1 hr at RT and then 15 mL of medium is added. Infected cells are incubated for 48-72 hr at 27° C. Infected Sf21 cells are scraped and collected into a 50 mL tube and centrifuged for 10 min at 4° C. at 1100 g in a Sorvall centrifuge. The cell pellet is washed once with ice cold PBS and lysed with 0.6 mL lysis buffer per 2.5×10^7 cells. Complete lysis of cells is achieved after 10 min on ice with occasional pipetting. […] GST-c-Raf-1 was allowed to bind to the beads at 4° C. for 1 hr with rocking. Bound GST-c-Raf-1 with beads was transferred to a column. The column is washed once with lysis buffer and twice with ice cold Tris buffered saline. Ice cold elution buffer is added and column flow is stopped to allow the free glutathione to disrupt the interaction of GST-c-Raf-1 with glutathione sepharose beads. Fractions (1 mL) are collected into pre-chilled tubes. Each tube contains 10% glycerol (final concentration) to maintain kinase activity during freeze thaw cycles. Purified fractions of GST-c-Raf-1 kinase protein are stored at −80° C.

[1] = Table 4, read-out: c-abl, activity (IC50 for kinase inhibition)
[2] = Table 4, read-out: Cdk1, activity (IC50 for kinase inhibition)
[3] = Table 5, read-out: CDK1/B, IC50 class
[4] = Table 5, read-out: C-abl, IC50 class

Row | SMILES | IC50 (c-Abl kinase; [1]) [µM] | IC50 (Cdk1/cycB; [2]) [µM] | IC50 (Cdk1/cycB; [3]) [µM] | IC50 (c-Abl kinase; [4]) [µM]
1 | CN1CCN(c2ccc(-c3cnn4c(N)c(-c5cccc(O)c5)cnc34)cc2)CC1 [Example 1, 3-{7-Amino-3-[4-(4-methyl-piperazin-1-yl)-phenyl]-pyrazolo[1,5-a]pyrimidin-6-yl}-phenol] | < 10 | – | – | –
2 | Nc1c(-c2cccc(O)c2)cnc2c(-c3cccnc3)cnn12 [Example 46, 3-[7-Amino-3-pyridin-3-yl-pyrazolo[1,5-a]pyrimidin-6-yl]-phenol] | < 10 | < 10 | – | –
3 | COc1ccccc1-c1cnn2c(N)c(-c3cccc(O)c3)cnc12 [Example 48, 3-[7-Amino-3-(2-methoxy-phenyl)-pyrazolo[1,5-a]pyrimidin-6-yl]-phenol] | < 10 | – | – | –
4 | COc1cccc(-c2cnn3c(N)c(-c4cccc(O)c4)cnc23)c1 [Example 60, 3-[7-Amino-3-(3-methoxy-phenyl)-pyrazolo[1,5-a]pyrimidin-6-yl]-phenol] | < 10 | < 10 | – | –
5 | COc1cc(N2CCN(C)CC2)ccc1-c1cnn2c(N)c(-c3cccc(Cl)c3)c(C)nc12 [Example 75, 6-(3-Chloro-phenyl)-3-[2-methoxy-4-(4-methyl-piperazin-1-yl)-phenyl]-5-methyl-pyrazolo[1,5-a]pyrimidin-7-ylamine] | – | – | – | < 1
6 | COc1ccc(-c2cnn3c(N)c(-c4cccc(Cl)c4)c(C)nc23)cc1 [Example 88, 6-(3-Chloro-phenyl)-3-(4-methoxy-phenyl)-5-methyl-pyrazolo[1,5-a]pyrimidin-7-ylamine] | – | – | > 10 | < 1
7 | Cc1nc2c(-c3cccc(N4C[C@@H](C)O[C@@H](C)C4)c3)cnn2c(N)c1-c1cccc(Cl)c1 [Example 89, 6-(3-Chloro-phenyl)-3-[3-((2R,6S)-2,6-dimethyl-morpholin-4-yl)-phenyl]-5-methyl-pyrazolo[1,5-a]pyrimidin-7-ylamine] | – | – | > 10 | < 1
8 | Cc1nc2c(-c3cccc(N4CCN(CCO)CC4)c3)cnn2c(N)c1-c1cccc(Cl)c1 [Example 90, 2-(4-{3-[7-Amino-6-(3-chloro-phenyl)-5-methyl-pyrazolo[1,5-a]pyrimidin-3-yl]-phenyl}-piperazin-1-yl)-ethanol] | – | – | > 10 | < 1
9 | CN1CCN(c2cccc(-c3cnn4c(N)c(Cc5ccccc5)cnc34)c2)CC1 [Example 91, 6-Benzyl-3-[3-(4-methyl-piperazin-1-yl)-phenyl]-pyrazolo[1,5-a]pyrimidin-7-ylamine] | – | – | > 10 | < 1
10 | COc1ccc(-c2cnn3c(N)c(-c4cccc(Cl)c4)c(CF)nc23)cc1OC [Example 92, 6-(3-Chloro-phenyl)-3-(3,4-dimethoxy-phenyl)-5-fluoromethyl-pyrazolo[1,5-a]pyrimidin-7-ylamine] | – | – | > 10 | –
11 | COc1ccc(-c2cnn3c(N)c(-c4cccc(Cl)c4)c(C)nc23)cc1OC [Example 93, 6-(3-Chloro-phenyl)-3-(3,4-dimethoxy-phenyl)-5-methyl-pyrazolo[1,5-a]pyrimidin-7-ylamine] | – | – | > 10 | < 1

Continued, values first:

Row | IC50 (c-Abl kinase; [1]) [µM] | IC50 (Cdk1/cycB; [2]) [µM] | IC50 (Cdk1/cycB; [3]) [µM] | IC50 (c-Abl kinase; [4]) [µM] | SMILES
12 | – | – | > 10 | < 1 | Cc1nc2c(-c3cccc(N4CCN(C)CC4)c3)cnn2c(N)c1-c1cccc(Cl)c1 [Example 72, 6-(3-Chloro-phenyl)-5-methyl-3-[3-(4-methyl-piperazin-1-yl)-phenyl]-pyrazolo[1,5-a]pyrimidin-7-ylamine]
13 | – | – | > 10 | < 1 | Cc1nc2c(-c3ccc(N4CCN(C)CC4)cc3)cnn2c(N)c1-c1cccc(Cl)c1 [Example 73, 6-(3-Chloro-phenyl)-5-methyl-3-[4-(4-methyl-piperazin-1-yl)-phenyl]-pyrazolo[1,5-a]pyrimidin-7-ylamine]
14 | – | – | > 10 | – | COc1cc(N2CCN(C)CC2)ccc1-c1cnn2c(N)c(-c3cccc(O)c3)cnc12 [Example 76, 3-{7-Amino-3-[2-methoxy-4-(4-methyl-piperazin-1-yl)-phenyl]-pyrazolo[1,5-a]pyrimidin-6-yl}-phenol]
15 | – | – | > 10 | < 1 | Cc1nc2c(-c3ccc(N4CCN(C)CC4)cc3)cnn2c(N)c1-c1ccc(F)cc1 [Example 79, 6-(4-Fluoro-phenyl)-5-methyl-3-[4-(4-methyl-piperazin-1-yl)-phenyl]-pyrazolo[1,5-a]pyrimidin-7-ylamine]
16 | – | – | > 10 | < 1 | Cc1nc2c(-c3cccc(N4CCN(C)CC4)c3)cnn2c(N)c1-c1ccc(F)cc1 [Example 80, 6-(4-Fluoro-phenyl)-5-methyl-3-[3-(4-methyl-piperazin-1-yl)-phenyl]-pyrazolo[1,5-a]pyrimidin-7-ylamine]
17 | – | – | > 10 | < 1 | Cc1nc2c(-c3cccc(N4CCN(C5CCN(C)CC5)CC4)c3)cnn2c(N)c1-c1cccc(Cl)c1 [Example 81, 6-(3-Chloro-phenyl)-5-methyl-3-{3-[4-(1-methyl-piperidin-4-yl)-piperazin-1-yl]-phenyl}-pyrazolo[1,5-a]pyrimidin-7-ylamine]
18 | – | – | > 10 | < 1 | Cc1nc2c(-c3cccc(N4CCN(C)CC4)c3)cnn2c(N)c1-c1ccc(F)c(Cl)c1 [Example 82, 6-(3-Chloro-4-fluoro-phenyl)-5-methyl-3-[3-(4-methyl-piperazin-1-yl)-phenyl]pyrazolo[1,5-a]pyrimidin-7-ylamine]
19 | – | – | > 10 | < 1 | Cc1nc2c(-c3ccc(N4CCN(C)CC4)cc3)cnn2c(N)c1-c1ccc(F)c(Cl)c1 [Example 83, 6-(3-Chloro-4-fluoro-phenyl)-5-methyl-3-[4-(4-methyl-piperazin-1-yl)-phenyl]-pyrazolo[1,5-a]pyrimidin-7-ylamine]
20 | – | – | > 10 | < 1 | Cc1nc2c(-c3cccc(N4CCN(C)CC4)c3)cnn2c(N)c1-c1cccc(Br)c1 [Example 84, 6-(3-Bromo-phenyl)-5-methyl-3-[3-(4-methyl-piperazin-1-yl)-phenyl]-pyrazolo[1,5-a]pyrimidin-7-ylamine]
21 | – | – | > 10 | < 1 | CN1CCN(c2cccc(-c3cnn4c(N)c(Cc5cccc(Br)c5)cnc34)c2)CC1 [Example 85, 6-(3-Bromo-benzyl)-3-[3-(4-methyl-piperazin-1-yl)-phenyl]pyrazolo[1,5-a]pyrimidin-7-ylamine]
22 | – | – | > 10 | < 1 | CN1CCN(c2cccc(-c3cnn4c(N)c(-c5cccc(Br)c5)cnc34)c2)CC1 [Example 86, 6-(3-Bromo-phenyl)-3-[3-(4-methyl-piperazin-1-yl)-phenyl]-pyrazolo[1,5-a]pyrimidin-7-ylamine]
23 | – | – | > 10 | < 1 | Cc1nc2c(-c3cccc(N4CCOCC4)c3)cnn2c(N)c1-c1cccc(Cl)c1 [Example 87, 6-(3-Chloro-phenyl)-5-methyl-3-(3-morpholin-4-yl-phenyl)-pyrazolo[1,5-a]pyrimidin-7-ylamine]
